Laboratory results published in patent publication US8063101B2, “Carotenoid analogs and derivatives for the prevention of platelet aggregation” (Cardax Pharmaceuticals, Inc., priority 2007, dated 2011).
Read-outs that look alike come from different tables or passages of the source.

Key:
[1] = rat, in vivo
Description: In a another experiment, all-trans 3S,3′S-astaxanthin diester diglycinate dihydrochloride salt (hereinafter “ADG”); all-trans 3S,3′S-astaxanthin diester disarcosinate dihydrochloride salt (hereinafter “ADSa”); and ADL were administered orally to separate rats as a aqueous suspension containing 0.5% carboxymethylcellulose. A single dose that included 40 mg/kg of the carotenoid derivative was administered to each rat. (See FIG. 20, PK Study #CXPK07202). For each carotenoid derivative given to the rats in this example, the amount of all astaxanthin isomers, the amount of trans astaxanthin isomers, and the amount of cis astaxanthin isomers in the plasma was determined at predefined time intervals for 3 days (72 hours).
In another experiment, ADG; ADSa; and ADL were administered to separate rats intravenously as an aqueous solution. A single dose that included 5 mg/kg of the carotenoid derivative was administered to each rat. (See FIG. 20, PK Study #CXPK07202). For each carotenoid derivative given to the rats in this example, the amount of all astaxanthin isomers, the amount of trans astaxanthin isomers, and the amount of cis astaxanthin isomers in the plasma was determined at predefined time intervals for 3 days (72 hours).

[2] = Dog PK of astaxanthin derivatives (CXPK07402, 07404, 07405, 07406); settings: dog, in vivo, po, 20 mg/kg
Description: In another experiment, ADL was administered to non-naïve beagle dogs orally (as an aqueous suspension containing 0.5% carboxymethylcellulose) and intravenously as an aqueous solution. Oral doses that included 10 mg/kg of the carotenoid derivative, 100 mg/kg of the carotenoid derivative, and 500 mg/kg of the carotenoid derivative were administered to each dog. The intravenous dosage was 5 mg/kg. (See FIG. 20, PK Study #CXPK07402). For each carotenoid derivative given to the dogs in this example, the amount of all astaxanthin isomers, the amount of trans astaxanthin isomers, and the amount of cis astaxanthin isomers in the plasma was determined at predefined time intervals for 3 days (72 hours).
In another experiment, ADL was administered to naïve beagle dogs orally (as an aqueous suspension containing 0.5% carboxymethylcellulose) twice a day for six days. Each oral dose included 75 mg/kg of the carotenoid derivative. (See FIG. 20, PK Study #CXPK07404). For each carotenoid derivative given to the dogs in this example, the amount of all astaxanthin isomers, the amount of trans astaxanthin isomers, and the amount of cis astaxanthin isomers in the plasma was determined at predefined time intervals for 6 days.
In another experiment, all-trans 3S,3′ S-astaxanthin diester di-beta-alanine dihydrochloride salt (hereinafter “ADA”); ADG; ADL; ADSa; and ADS were administered orally to separate non-naïve dogs as a aqueous suspension containing 0.5% carboxymethylcellulose. A single dose that included 20 mg/kg of the carotenoid derivative was administered to each dog. (See FIG. 20, PK Study #CXPK07405). For each carotenoid derivative given to the dogs in this example, the amount of all astaxanthin isomers was determined at predefined time intervals for 3 days (72 hours).
In another experiment, ADG or ADSa was administered to non-naïve beagle dogs orally (as an aqueous suspension containing 0.5% carboxymethylcellulose). Oral doses included either 50 mg/kg of the carotenoid derivative or 100 mg/kg of the carotenoid derivative. (See FIG. 20, PK Study #CXPK07406). For each carotenoid derivative given to the dogs in this example, the amount of all astaxanthin isomers, the amount of trans astaxanthin isomers, and the amount of cis astaxanthin isomers in the plasma was determined at predefined time intervals for 3 days (72 hours).

[3] = Monkey PK oral and intravenous (CXPK07502); type: in vivo; settings: monkeys; oral 10, 300, 500 mg/kg and intravenous 5 mg/kg
platelets [4] = assay: Platelet-derived peroxynitrite release after IP3 stimulation; type: cell-based; settings: IP3 1.0 μM; for effect on platelet ONOO— release: compound alone at 1.0 μM, FIG. 12
Source text: Values are reported as mean±S.D. (N=5). *p<0.001 and †p<0.05 versus control; §p<0.001 versus aspirin treatment (ANOVA Student-Newman-Keuls multiple comparisons test; overall ANOVA: p<0.0001; F=52.475). […] Values are reported as mean±S.D. (N=5). *p<0.001 versus control and †p<0.001 versus aspirin alone (ANOVA Student-Newman-Keuls multiple comparisons test; overall ANOVA: p<0.0001; F=21.905). Abbreviations: Astax=Astaxanthin. […] Values are reported as mean±S.D. (N=5). *p<0.05 and **p<0.001 versus control; †p<0.05 and ‡p<0.001 versus simvastatin alone (ANOVA Student-Newman-Keuls multiple comparisons test; overall ANOVA: p<0.0001; F=13.716). Abbreviations: Astax=Astaxanthin; Simva=Simvastatin.

platelets [5] = assay: Platelet nitric oxide/peroxynitrite release ratio after IP3 stimulation; type: cell-based; settings: IP3 1.0 μM
Source text: Values are reported as mean±S.D. (N=5). *p<0.05 and **p<0.001 versus control; †p<0.01 and ‡p<0.001 versus aspirin alone (ANOVA Student-Newman-Keuls multiple comparisons test; overall ANOVA: p<0.0001; F=129.98). Abbreviations: Astax=Astaxanthin. […] Values are reported as mean±S.D. (N=5). *p<0.05 and **p<0.001 versus control; †p<0.001 versus simvastatin alone (ANOVA Student-Newman-Keuls multiple comparisons test; overall ANOVA: p<0.0001; F=84.477). Abbreviations: Astax=Astaxanthin; Simva=Simvastatin. […] Values are reported as mean±S.D. (N=5). *p<0.05 and †p<0.001 versus control; §p<0.001 versus astaxanthin treatment (ANOVA Student-Newman-Keuls multiple comparisons test; overall ANOVA: p<0.0001; F=40.020).

vascular platelets = assay: Platelet-derived nitric oxide (NO) release after IP3 stimulation, NO nanosensor; type: cell-based, Wistar-Kyoto (WKY) rats
Description: Wistar-Kyoto (WKY) rats were anaesthetized and blood was collected directly from the heart using a 10 mL syringe that contained 3.8% sodium citrate (9:1, v v^−1). […] The platelet rich plasma (PRP) was then removed by aspiration. […] The number of platelets was counted and adjusted to 3.5×10^8 per mL with Tyrode-HEPES buffer. The platelets were incubated in an aggregometer with a NO nanosensor (working electrode) placed in the platelet suspension. […] All measurements of NO release were conducted in Hank's balanced salt solution (HBSS) at 37° C. The sensor operated with a three-electrode system: nanosensor (working electrode), saturated calomel electrode (reference electrode), and platinum wire (counter electrode, 0.5 mm diameter). The three electrodes were connected to a potentiostat/galvanostat PAR273. The baseline was stabilized after ˜20 s. With a nanoinjector, the test compounds were injected onto the surface of the cells following solubilization in buffer. In experiments with multiple compounds, the compounds were injected simultaneously. […] Data were acquired with the use of custom software. Amperograms (current vs. time curves) were recorded with a Guniry FAS1 Femtostat (Warminster, Pa.). The nanosensor for NO was calibrated using saturated solution (concentration 1.82 mM verified with the coulometric method). […] The data were presented as mean±S.D. for each of the triplicate measurements. The data (calculation and plotting) were transferred to Microcal Origin Software (OriginLab Corp., Northampton, Mass.). […] The NO concentration was calculated using current responses obtained from standard NO solution (prepared from […] stock solution, saturated aqueous NO solution).

[6] = system: human umbilical vein endothelial cells (HUVEC); assay: Calcium ionophore (CaI)-stimulated total nitric oxide release from HUVEC; type: cell-based; settings: 3S,3′S-AST 5.0 μM, clopidogrel 1.0 μM, alone or in combination; FIG. 5
Description: (§1) Human umbilical vein endothelial cells (HUVECs) were isolated into primary cultures from white female donors by Clonetics (San Diego, Calif.), essentially as described (Mason et al. 2005). All donors were reported to be healthy and none had pregnancy or prenatal complications. All measurements were recorded in vitro using a sensitive porphyrinic probe, also as previously described. HUVEC cells were grown in Ham's F12K medium with 2 mM L-glutamine adjusted to contain 1.5 g/L sodium bicarbonate and supplemented with 0.1 mg/mL heparin and 0.03-0.05 mg/mL endothelial cell growth supplement (ECGS) plus 10% fetal bovine serum. The HUVEC cells were kept in an atmosphere of elevated CO2 concentration (5%).
All measurements of NO release were conducted in Hank's balanced salt solution (HBSS) at 37° C. The sensor operated with a three-electrode system: nanosensor (working electrode), saturated calomel electrode (reference electrode), and platinum wire (counter electrode, 0.5 mm diameter). The three electrodes were connected to a potentiostat/galvanostat PAR273. […] The current (amps) proportional to the NO concentration was measured with the sensor, which operated in amperometric mode at a constant potential of 0.63 V. Data were acquired with the use of custom software. Amperograms (current vs. time curves) were recorded with a Guniry FAS1 Femtostat (Warminster, Pa.).

[7] = system: human umbilical vein endothelial cells (HUVEC); assay: Calcium ionophore (CaI)-stimulated total peroxynitrite release from HUVEC; type: cell-based; settings: 3S,3′S-AST 5.0 μM, clopidogrel 1.0 μM, alone or in combination; FIG. 6
Description: as §1

[8] = system: human umbilical vein endothelial cells (HUVEC); assay: CaI-stimulated NO/OONO- release ratio from HUVEC; type: cell-based; settings: 3S,3′S-AST 5.0 μM, clopidogrel 1.0 μM, alone or in combination; FIG. 7
Description: as §1

[9] = set-up: species or system rats; settings: in vivo, po, 500 mg/kg
Description: In one experiment, astaxanthin; all-trans 3S,3'S-astaxanthin diester disuccinate disodium salt (hereinafter “ADS”); and all-trans 3S,3'S-astaxanthin diester […] tetrahydrochloride salt (hereinafter “ADL”) were administered orally to separate rats as a lipid suspension. A single dose that included 500 mg/kg of the carotenoid/carotenoid derivative was administered to each rat. (See FIG. 20, PK Study #CXPK07201). Plasma from each of the rats was collected 4 hours after ingestion and 8 hours after ingestion and all samples were analyzed by high performance liquid chromatography (“HPLC”). HPLC analysis was used to detect the presence of free underivatized carotenoid (e.g., in this example, astaxanthin) in the plasma. HPLC chromatograms were collected for each plasma sample taken.

[10] = astaxanthin combined with aspirin 1.0 μM, IP3 1.0 μM, FIG. 14

SMILES	absorption and metabolism to astaxanthin in plasma ([1]; iv, 5 mg/kg)	absorption and metabolism to astaxanthin in plasma ([1]; po, 40 mg/kg)	absorption and metabolism to astaxanthin in plasma [2]	absorption and metabolism to astaxanthin in plasma [3]	effect on platelet ONOO— release (platelets [4])	effect on NO/ONOO— ratio (platelets [5]; aspirin separately, 1.0 μM)	sustained production of NO with time (amperogram) (vascular platelets; IP3-stimulated, 3S,3′S-AST 5.0 μM alone or with clopidogrel 1.0 μM, FIG. 4) [s]	mean increase in capacity to generate bioavailable NO vs. controls (vascular platelets; IP3 stimulation, homochiral astaxanthin 5.0 μM alone)	increase in platelet NO generation/release vs. mean control levels (vascular platelets; IP3 stimulation, homochiral astaxanthin 5 μM, clopidogrel 1 μM, each as monotherapy) [%]	total NO release from vascular platelets (vascular platelets; IP3 stimulation, homochiral astaxanthin 5.0 μM, clopidogrel 1.0 μM, controls 6.6±0.3, mean±S.D.)	increase in NO release over untreated samples (vascular platelets; [10]) [fold]	potentiation of the NO release observed by aspirin alone (vascular platelets; [10]) [%]	effect of astaxanthin on simvastatin's platelet-derived NO release (vascular platelets; increasing astaxanthin with simvastatin 1.0 μM, IP3 1.0 μM)	effect of astaxanthin on aspirin-induced ONOO— release (platelets [4]; increasing astaxanthin with aspirin 1.0 μM, FIG. 13)	NOS coupling efficiency (ratio of NO/ONOO—), increase over control levels as well as aspirin alone (platelets [5]; astaxanthin combined with aspirin 1.0 μM)	effect on CaI-stimulated total nitric oxide release from HUVEC [6]	effect on CaI-stimulated total peroxynitrite (OONO−) release from HUVEC [7]	effect on CaI-stimulated NO/OONO− release ratio from HUVEC [8]	free astaxanthin in rat plasma [9]
CNCC(=O)O[C@H]1CC(C)(C)C(/C=C/C(C)=C/C=C/C(C)=C/C=C/C=C(C)/C=C/C=C(C)/C=C/C2=C(C)C(=O)[C@@H](OC(=O)CNC)CC2(C)C)=C(C)C1=O.Cl.Cl (relative stereo) [ADSa, all-trans 3S,3′S-astaxanthin diester disarcosinate dihydrochloride salt]	absorbed by the rats and metabolized	absorbed by the rats and metabolized	absorbed by the dogs and metabolized	absorbed by the monkeys and metabolized	–	–	–	–	–	–	–	–	–	–	–	–	–	–	–
CC(=O)Oc1ccccc1C(=O)O [aspirin, reference compound]	–	–	–	–	increased	failed to produce a favorable effect	–	–	–	–	–	–	–	–	–	–	–	–	–
CC1=C(/C=C/C(C)=C/C=C/C(C)=C/C=C/C=C(C)/C=C/C=C(C)/C=C/C2=C(C)C(=O)[C@@H](O)CC2(C)C)C(C)(C)C[C@H](O)C1=O [homochiral astaxanthin, astaxanthin]	–	–	–	–	decreased	–	13	two-fold	~100	12.9±0.3 molecules NO×10^6/platelet	3	80	enhanced the effect of simvastatin on platelet-derived NO release in a dose-dependent fashion	reverse the effect of aspirin on ONOO— release in a dose-dependent manner	approximately three-fold	Statistically significant increases	Statistically significant decreases	Statistically significant increases	no significant amount
